Source: article PMC11357256, “Selectivity Screening and Structure–Cytotoxic Activity Observations of Selected Oleanolic Acid (OA)-Type Saponins from the Amaranthaceae Family on a Wiade Panel of Human Cancer Cell Lines” (Molecules, 2024)

Key:
Du-145 = experiment: MTT cell viability assay, Du-145 prostate carcinoma cells; format: cell-based; settings: Homo sapiens
Excerpt: (§1) Cell lines used in the study were grouped as follows: skin panel (melanomas: HTB140, derived from metastatic site: lymph node, ATCC Hs 294 T; malignant A375, ATCC CRL-1619; stage I primary WM793, RRID:CVCL 8787; skin keratinocytes HaCaT); prostate panel (prostate carcinomas: Du145, derived from metastatic site: brain, ATCC HTB-81; grade IV PC3, derived from metastatic site: bone, ATCC CRL-1435, LNCaP, derived from the metastatic site: lymph node, ATCC CRL-1740; prostate epithelial, PNT2, ECACC 95012613); gastrointestinal panel (colorectal adenocarcinomas: Caco2, ATCC HTB-37, HT29, ATCC HTB-38, DLD-1, ATCC CCL-221, HCT116, ATCC CCL-247, and colon epithelial cells CCD 841 CoN, ATCC CRL-1790; hepatocellular carcinoma HepG2, ATCC HB-8065); thyroid panel (follicular thyroid carcinoma FTC133, ECACC 9406090, undifferentiated thyroid carcinoma 8505C, ECACC 94090184, papillary thyroid carcinoma TPC-1, SCC147, normal thyroid follicular epithelial Nthy-ori 3–1, ECACC 90011609); and breast panel (ER-positive breast adenocarcinoma MCF7, ATCC HTB-22; ER-negative breast adenocarcinoma MDA-MB-231, ATCC HTB-26; breast epithelial MCF10A, ATCC CRL-10317). Cells were grown under standard conditions (37 °C, 5% CO2, relative humidity), and culture media (DMEM/F12 for PNT2, WM 793, HT29, PC3, FTC133, 8505 C, MDA-MB-231, TPC-1; DMEM Low Glucose for DU145; DMEM High Glucose for HTB140, A375, HaCaT; MEM with NEAA for Caco2 and MCF7; RPMI1640 with sodium pyruvate for LNCaP; DMEM/F12 with 20 ng/mL epidermal growth factor (EGF), 10 μg/mL insulin, 0.5 μg/mL hydrocortisone, 100 ng/mL cholera toxin) for MCF10A) supplemented with 10% fetal bovine serum (FBS) or 5% donor horse serum for MCF10A, and 1% antibiotics solution (10,000 U penicillin and 10 mg streptomycin/mL) […], as previously described. All cell lines, culture media, and supplements were from Sigma-Aldrich (Germany).
(§2) The cells were seeded in 96-well plates (1.5 × 10^4 cells/well). After 24 h, fresh medium was added, containing the tested compounds (0.5–100 μg/mL) and incubated for 24 or 48 h. Cell viability was determined by MTT assay, according to the manufacturer’s instructions, as described previously. Each experiment was performed in triplicate. The absorbance was measured at 570 nm using a Biotek Synergy microplate reader (BioTek Instruments Inc., Winooski, VT, USA). Cell viability was expressed as a percent of control (untreated cells). Doxorubicin was used as a reference drug.

PC3 = experiment: MTT cell viability assay, PC3 prostate carcinoma cells; format: cell-based; settings: Homo sapiens, PC-3
Excerpt: as §1, §2

LNCaP = experiment: MTT cell viability assay, LNCaP prostate adenocarcinoma cells; format: cell-based; settings: Homo sapiens
Excerpt: as §1, §2

PNT2 = experiment: MTT cell viability assay, PNT2 normal prostate epithelial cells; format: cell-based; settings: Homo sapiens
Excerpt: as §1, §2

MDA-MB-231 = experiment: MTT cell viability assay, MDA-MB-231 breast adenocarcinoma cells; format: cell-based; settings: Homo sapiens
Excerpt: as §1, §2

MCF7 = experiment: MTT cell viability assay, MCF7 breast adenocarcinoma cells; format: cell-based; settings: Homo sapiens
Excerpt: as §1, §2

MCF10A = experiment: MTT cell viability assay, MCF10A normal breast epithelial cells; format: cell-based; settings: Homo sapiens, MCF-10A
Excerpt: as §1, §2

FTC133 = experiment: MTT cell viability assay, FTC133 follicular thyroid carcinoma cells; format: cell-based, human; settings: for IC50: Homo sapiens, FTC-133
Excerpt: as §1, §2
(§3) The selectivity index (SI) was calculated from the following formula:SI = IC50 of compound in a normal cell line/IC50 of compound in cancer cell line.IC50, half maximal inhibitory concentration, is a concentration required to kill 50% of the cells.

8505C = experiment: MTT cell viability assay, 8505C undifferentiated thyroid carcinoma cells; format: cell-based, human; settings: for IC50: Homo sapiens, 8505C; for Selectivity Index (SI): IC50 Nthy-ori 3-1 / IC50 8505C
Excerpt: as §1, §2, §3

TPC-1 = experiment: MTT cell viability assay, TPC-1 papillary thyroid carcinoma cells; format: cell-based, human; settings: for IC50: Homo sapiens, TPC1
Excerpt: as §1, §2, §3

Nthy-ori 3-1 = experiment: MTT cell viability assay, Nthy-ori 3-1 normal thyroid epithelial cells; format: cell-based; settings: Homo sapiens
Excerpt: as §1, §2

Caco-2 = experiment: MTT cell viability assay, Caco-2 colon cancer cells; format: cell-based; settings: Homo sapiens
Excerpt: as §1, §2

HT29 = experiment: MTT cell viability assay, HT29 colorectal adenocarcinoma cells; format: cell-based; settings: Homo sapiens, HT-29
Excerpt: as §1, §2

HepG2 = experiment: MTT cell viability assay, HepG2 hepatocellular carcinoma cells; format: cell-based; settings: Homo sapiens
Excerpt: as §1, §2

DLD-1 = experiment: MTT cell viability assay, DLD-1 colon cancer cells; format: cell-based; settings: Homo sapiens
Excerpt: as §1, §2

HCT116 = experiment: MTT cell viability assay, HCT116 colon cancer cells; format: cell-based; settings: Homo sapiens, HCT-116
Excerpt: as §1, §2

CCD 841 CoN = experiment: MTT cell viability assay, CCD 841 CoN normal colon epithelial cells; format: cell-based; settings: Homo sapiens
Excerpt: as §1, §2

HTB-140 = experiment: MTT cell viability assay, HTB-140 metastatic melanoma cells; format: cell-based, human; settings: for IC50: Homo sapiens
Excerpt: as §1, §2, §3

A375 = experiment: MTT cell viability assay, A375 malignant melanoma cells; format: cell-based, human; settings: for IC50: Homo sapiens, A-375
Excerpt: as §1, §2, §3

WM793 = experiment: MTT cell viability assay, WM793 primary melanoma cells; format: cell-based, human; settings: for IC50: Homo sapiens
Excerpt: as §1, §2, §3

HaCaT = experiment: MTT cell viability assay, HaCaT keratinocytes; format: cell-based; settings: Homo sapiens
Excerpt: as §1, §2

## CC1(C)CCC2(C(=O)O)CCC3(C)C(=CCC4C5(C)CCC(OC6OC(C(=O)O)C(O)C(OC7OCC(O)C(O)C7O)C6O)C(C)(C)C5CCC43C)C2C1 [MIc, oleanolic acid-3-O-[β-D-xylopyranosyl(1→3)-β-D-glucuronopyranoside]]
Du-145; DU-145, 24 h
  IC50: 5.4 µg/mL
Du-145; DU-145, 48 h
  IC50: 2.8 µg/mL
PC3; PC3, 24 h
  IC50: 5.5 µg/mL
PC3; PC3, 48 h
  IC50: 3.4 µg/mL
LNCaP; 24 h
  IC50: > 100 µg/mL
LNCaP; 48 h
  IC50: > 100 µg/mL
PNT2; 24 h
  IC50: > 100 µg/mL
PNT2; 48 h
  IC50: > 100 µg/mL
MDA-MB-231; MDA-MB-231, 24 h
  IC50: 52.2 µg/mL
MDA-MB-231; MDA-MB-231, 48 h
  IC50: 16.4 µg/mL
MCF7; MCF7, 24 h
  IC50: > 100 µg/mL
MCF7; MCF7, 48 h
  IC50: 29.2 µg/mL
MCF10A; 24 h
  IC50: > 100 µg/mL
MCF10A; 48 h
  IC50: > 100 µg/mL
FTC133; FTC133, 24 h
  IC50: 3.5 µg/mL
FTC133; FTC133, 48 h
  IC50: 2.1 µg/mL
FTC133; IC50 Nthy-ori 3-1 / IC50 FTC133, 24 h
  Selectivity Index (SI): 24.85
FTC133; IC50 Nthy-ori 3-1 / IC50 FTC133, 48 h
  Selectivity Index (SI): 30.7
8505C; 24 h
  IC50: 10.6 µg/mL
  Selectivity Index (SI): 8.2
8505C; 48 h
  IC50: 5.2 µg/mL
  Selectivity Index (SI): 12.2
TPC-1; TPC-1, 24 h
  IC50: 39 µg/mL
TPC-1; TPC-1, 48 h
  IC50: 39 µg/mL
TPC-1; IC50 Nthy-ori 3-1 / IC50 TPC-1, 24 h
  Selectivity Index (SI): 2.2
TPC-1; IC50 Nthy-ori 3-1 / IC50 TPC-1, 48 h
  Selectivity Index (SI): 1.6
Nthy-ori 3-1; 24 h
  IC50: 86.2 µg/mL
Nthy-ori 3-1; 48 h
  IC50: 64.4 µg/mL
Caco-2; Caco-2, 24 h
  IC50: 7 µg/mL
Caco-2; Caco-2, 48 h
  IC50: 4.3 µg/mL
HT29; HT29, 24 h
  IC50: 4.2 µg/mL
HT29; HT29, 48 h
  IC50: 2.9 µg/mL
HepG2; HepG2, 24 h
  IC50: 12.5 µg/mL
HepG2; HepG2, 48 h
  IC50: 9.5 µg/mL
DLD-1; DLD-1, 24 h
  IC50: 16 µg/mL
DLD-1; DLD-1, 48 h
  IC50: 8 µg/mL
HCT116; HCT116, 24 h
  IC50: 9.4 µg/mL
HCT116; HCT116, 48 h
  IC50: 8.3 µg/mL
CCD 841 CoN; 24 h
  IC50: > 100 µg/mL
CCD 841 CoN; 48 h
  IC50: > 100 µg/mL
HTB-140; HTB-140, 24 h
  IC50: 7.8 µg/mL
HTB-140; HTB-140, 48 h
  IC50: 3 µg/mL
HTB-140; IC50 HaCaT / IC50 HTB-140, 24 h
  Selectivity Index (SI): 0.7
A375; A375, 24 h
  IC50: 1.9 µg/mL
A375; A375, 48 h
  IC50: 0.9 µg/mL
A375; IC50 HaCaT / IC50 A375, 24 h
  Selectivity Index (SI): 2.7
WM793; WM793, 24 h
  IC50: 2 µg/mL
WM793; WM793, 48 h
  IC50: 1 µg/mL
WM793; IC50 HaCaT / IC50 WM793, 24 h
  Selectivity Index (SI): 2.6
WM793; IC50 HaCaT / IC50 WM793, 48 h
  Selectivity Index (SI): 2.7
HaCaT; 24 h
  IC50: 5.3 µg/mL
HaCaT; 48 h
  IC50: 2.7 µg/mL
